Results: patent US5134150A, “Inhibition of the 5-lipoxygenase pathway” (priority 1989, dated 1992)

Biological target: T1, 5-Lipoxygenase (Rattus norvegicus, UniProt P12527)
T1 construct: The activities of these enzymes in extracts of RBL-1 cells were assayed; host or cells: RBL-1
T1 sequence (P12527 1-673): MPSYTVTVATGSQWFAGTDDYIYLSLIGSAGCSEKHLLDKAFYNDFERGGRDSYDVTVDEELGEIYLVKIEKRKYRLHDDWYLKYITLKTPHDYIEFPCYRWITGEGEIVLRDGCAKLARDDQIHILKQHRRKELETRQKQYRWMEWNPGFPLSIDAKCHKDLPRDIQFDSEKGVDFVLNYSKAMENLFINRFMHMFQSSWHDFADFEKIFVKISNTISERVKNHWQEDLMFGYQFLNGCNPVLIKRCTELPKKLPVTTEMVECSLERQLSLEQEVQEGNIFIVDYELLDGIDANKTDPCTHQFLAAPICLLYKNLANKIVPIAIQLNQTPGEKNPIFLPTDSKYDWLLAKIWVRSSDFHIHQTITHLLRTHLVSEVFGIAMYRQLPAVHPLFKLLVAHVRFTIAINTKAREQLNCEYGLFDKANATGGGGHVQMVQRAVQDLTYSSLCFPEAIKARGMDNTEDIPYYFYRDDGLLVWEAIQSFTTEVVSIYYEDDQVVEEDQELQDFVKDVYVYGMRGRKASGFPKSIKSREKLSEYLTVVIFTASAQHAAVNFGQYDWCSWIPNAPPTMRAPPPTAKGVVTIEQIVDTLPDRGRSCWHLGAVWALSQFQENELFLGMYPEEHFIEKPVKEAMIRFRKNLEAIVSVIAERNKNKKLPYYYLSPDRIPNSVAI
Assay: 5-HETE production by high speed supernatant of RBL-1 cells
Format: biochemical
Experimental: For in vitro experiments, compounds were dissolved at appropriate concentrations in ethanol or DMSO (dimethylsulfoxide) (final concentration≤1.0%) and then diluted to final concentrations using the buffers indicated in the text.
The activities of these enzymes in extracts of RBL-1 cells were assayed using the method of Jakschik and Lee, Nature, 287, 51-52 (1980). RBL-1 cells were obtained from the American Type Culture Collection (#CRL 1378) and were grown at 37° C. (5% CO2 in air) in spinner culture in MEM supplemented with 10% heat inactivated fetal calf serum. Harvested cells were washed with 50 mM sodium phosphate buffer, pH 7.0, containing 1 mM EDTA and 0.1% gelatin, resuspended in fresh buffer (5×10^7 cells/ml) and disrupted by nitrogen cavitation using the Parr bomb at 750 psi for 10 min. The broken cell extract was then centrifuged at 10,000× g for 20 minutes (min) and the supernatant centrifuged at 100,000 xIg for 60 min. Aliquots (0.25 mls) of the supernatant were preincubated with or without drugs for 10 min, after which 10 μl CaCl2 (50 mM) was added and the reaction was initiated with 2.5 μl of 2.5 mM arachidonic acid-1-^14 C (final concentration was 25 μM; specific activity 20,000 dpm/nmole). After incubation for 3 min at 37° C., the reaction was terminated by addition of 2 volumes (0.5 ml) ice cold acetone and the sample was allowed to deproteinize on ice for 10 min prior to centrifugation at 1,000× g for 10 min. The deproteinized supernatant was adjusted to pH 3.5 with 2N formic acid and extracted with 2 volumes of ice cold ethyl acetate. The extracted samples were dried under argon, redissolved in ethyl acetate and applied to Whatman LK5D thin layer chromatography (TLC) plates which were developed using the A-9 solvent system [organic phase of ethyl acetate: 2,2,5-trimethylpentane:acetic acid: water (110:50:20:10)] described by Hamberg and Samuelsson, J. Biol. Chem., 241, 257-263 (1966). Arachidonic acid, 5-HETE, LTB4 and PGD2 were quantified with a Berthold LB 2832 autoscanner.
The 5-lipoxygenase and LTA4 synthetase activities were further studied under the following conditions. An additional centrifugation of the RBL-1 supernatant was run at 100,000× g for 60 min, to remove the particulate cyclooxygenase activity. Sample incubation was done under conditions similar to those described above, i.e., 2 mM CaCl2 and […] arachidonic acid-1-^14 C, however, with an incubation time of 5 min at 5° C. Under these conditions, only the 5-lipoxygenase pathway metabolites were detectable. The 5-HETE and di-HETEs were formed at a linear rate, and substantial amounts of the arachidonic acid-1-^14 C substrate were utilized.

5-HETE (1 μM): 8.86 ± 0.31 nM/ml
5-HETE (3.3 μM): 7.63 ± 0.44 nM/ml
5-HETE (10 μM): 5.57 ± 0.35 nM/ml
5-HETE (33 μM): 3.36 ± 0.07 nM/ml
5-HETE (100 μM): 1.08 ± 0.13 nM/ml
SMILES: Fc1ccc(-c2nc3n(c2-c2ccncc2)CCS3)cc1 [Compound 1]
